Literature values as cited in article PMC3792011 (Clinical Pharmacology : Advances and Applications, 2013).
“And” between values parts separate entries of the source, which are not always exact repeats. Identical values can stand only once.

How the values were obtained:
[1] = treatment guidelines
[2] = steady state; bibliographic data

Recommended upper limit of plasma concentration (risk of hyperbilirubinemia) [1]: < 1.1 µmol/L
AUC, geometric mean (CV %) [2]: 65.4 (0.1) μmol · h/L
AUC, mean (SD) [2]: 76.4 (50.1) μmol · h/L
Cmax_SS_ATZ, geometric mean (CV %) [2]: 6.2 (0.1) μmol/L
Cmax_SS_ATZ, mean (SD) [2]: 7.4 (4.3) μmol/L
Cmin_SS_ATZ, geometric mean (CV %) [2]: 0.9 μmol/L and 0.9 (0.1) μmol/L
Cmin_SS_ATZ, mean (SD) [2]: 1.2 (1.2) μmol/L
T-half, mean (SD) [2]: 8.6 (2.3) h
Compound: COC(=O)N[C@H](C(=O)N[C@@H](Cc1ccccc1)[C@@H](O)CN(Cc1ccc(-c2ccccn2)cc1)NC(=O)[C@@H](NC(=O)OC)C(C)(C)C)C(C)(C)C [ATZ, Atazanavir]
